These results are taken from paper PMC12590356, “Novel pyrrolo[2,1-a]isoquinoline aryl ketones attenuate carbon nanotube-induced acute lung injury through NF-κB pathway inhibition” (RSC Advances, 2025).

Read-outs that look alike come from different tables or passages of the source.

The nature of data set [1]: CCK8 cell viability (cytotoxicity) assay. Format: cell-based, murine. Conditions: mouse, RAW264.7 cells, means ± SD (n = 3). The procedure:
The toxic effect of synthesized compounds was evaluated on RAW264.7 cells utilizing a CCK8 assay kit.
RAW264.7 cells were seeded in 96-well plates and incubated with various compounds, each at a uniform concentration of 50 μM, for 24 h. Following this incubation, CCK8 was added to the 96-well plates and incubated at 37 °C for 1 h. The control group was cultivated solely in fresh medium. The absorbance at 450 nm was quantified using an enzyme marker.

Data set [2] relates to LPS-induced NO production in RAW 264.7 cells. Kind of data set: LPS-induced NO production (Griess reagent). Format: cell-based, murine. More on the design: NO inhibition rate: dose or concentration left out as unconfirmed; key to Inhibition of LPS-induced NO production, result in words (na / tox): na: no activity at the concentration of 40 μM; toxicity. Conditions: for IC50: Mus musculus, RAW264.7, LPS 500 ng/mL 24 h, read-out: IC50, inhibition of LPS-induced NO production; for IC50 / NO inhibition rate: Griess reagent, means ± SD (n = 3); for Inhibition of LPS-induced NO production, result in words (na / tox): na at 40 μM. As for the experimental part: Despite extensive research efforts focused on the treatment ALI, no specific drugs have been identified thus far. In the quest to discover innovative anti-inflammatory drugs for ALI treatment, we assessed the anti-inflammatory potential of pyrrolo[2,1-a]isoquinoline aryl ketones were evaluated through their capacity to suppress LPS-induced NO release in RAW264.7 cells.[21,28] Griess reagent was used to quantify the levels of LPS-induced NO release in RAW264.7 cells following treatment with the synthesized compounds.
The quantification of NO production in activated RAW264.7 cells was achieved by measuring the concentration of nitrite, which serves as a stable oxidative metabolite of NO, employing a previously established protocol.[37] RAW264.7 cells were cultured overnight in 48-well plates at a cellular density of 5 × 10^4 cells per milliliter. […] Briefly, Griess reagents I and II were mixed with 50 μL of the culture medium supernatant, and the resultant mixture was analyzed spectrophotometrically at a wavelength of 540 nm using an automated microplate reader. The NO inhibition rate was calculated using the following formula: NO inhibition rate = [(OD540 − compound OD540)/(OD540 − blank OD540)] × 100%.
A general note: The Griess reaction detects nitrite, a stable product of nitric oxide.

Another data set deals with COX-2. Conditions: cited from earlier work.
Another data set relates to PPAR-α. More on the design: method as in PMID 22489042. Conditions: cited from earlier work.
Another data set relates to PPAR-γ. More on the design: method as in PMID 22489042. The note with it: cited from earlier work.
The next data set relates to PPAR-δ. Set-up: method as in PMID 22489042. The note with it: cited from earlier work.
The subject of a further data set is COX-1. More on the design: method as in PMID 32358780, PMID 30243628. Conditions: cited from earlier work.

As a reminder, the viability is a read-out of living cells in per cent, often relative to untreated cells. The term IC50 denotes the concentration needed to halve the response being measured. Turning to `COC(=O)c1ccc2c3ccccc3ccn12` [3a], the viability at 24 h, 50 µM in data set [1] was determined as 92.4 ± 6.3%. Moreover, in data set [2], the IC50 came out at 19900 ± 710 nM.

On to `CC(C)(C)OC(=O)c1ccc2c3ccccc3ccn12` [3b], for which, in data set [1], the viability at 24 h, 50 µM was 95.6 ± 2.9%. In data set [2], this compound returned an NO inhibition rate of 42.0 ± 4.2%.

As for `N#Cc1ccc2c3ccccc3ccn12` [3c], the viability at 24 h, 50 µM in data set [1] stood at 97.1 ± 2.6%. The NO inhibition rate in data set [2] is 46.9 ± 1.8%.

On to `O=C(c1ccccc1)c1ccc2c3ccccc3ccn12` [3d], for which the viability at 24 h, 50 µM in data set [1] was 96.8 ± 6.6%. In data set [2], this compound gave an NO inhibition rate of 48.0 ± 1.3%.

Turning to `COc1ccc(C(=O)c2ccc3c4ccccc4ccn23)cc1` [3e], the viability at 24 h, 50 µM in data set [1] was 88.7 ± 5.8%.

Consider `Cc1ccc(C(=O)c2ccc3c4ccccc4ccn23)cc1` [3f], for which, in data set [1], the viability at 24 h, 50 µM is 53.6 ± 6.4%. The “Inhibition of LPS-induced NO production, result in words (na / tox)” value in data set [2] was “tox”.

For `O=C(c1ccc(Cl)cc1)c1ccc2c3ccccc3ccn12` [3h], the viability at 24 h, 50 µM in data set [1] turned out to be 101 ± 3%. In data set [2], this compound showed an NO inhibition rate of 39.6 ± 5.3%.

`O=C(c1ccc(Br)cc1)c1ccc2c3ccccc3ccn12` [3i]: in data set [1], the viability at 24 h, 50 µM was 95.9 ± 7.7%.

`O=C(c1ccc(C(F)(F)F)cc1)c1ccc2c3ccccc3ccn12` [3j]: the viability at 24 h, 50 µM in data set [1] was determined as 89.9 ± 5.6%.

With `O=C(c1ccccc1Cl)c1ccc2c3ccccc3ccn12` [3l], the viability at 24 h, 50 µM in data set [1] worked out at 99.3 ± 8.8%. This compound displayed an NO inhibition rate in data set [2] of 38.2 ± 5.1%.

Turning to `O=C(c1ccccc1O)c1ccc2c3ccccc3ccn12` [3m], the viability at 24 h, 50 µM in data set [1] worked out at 46.4 ± 6.5%. Further, the “Inhibition of LPS-induced NO production, result in words (na / tox)” value in data set [2] was “tox”.

`Cc1cccc(C(=O)c2ccc3c4ccccc4ccn23)c1` [3n] returned an NO inhibition rate in data set [2] of 46.8 ± 3.1%.

In the case of `O=C(c1cccc(Cl)c1)c1ccc2c3ccccc3ccn12` [3o], the viability at 24 h, 50 µM in data set [1] was found to be 91.5 ± 8.5%. The same compound had an NO inhibition rate in data set [2] of 39.2 ± 7.1%.

Take `O=C(c1ccc2ccccc2c1)c1ccc2c3ccccc3ccn12` [3p]: in data set [1], the viability at 24 h, 50 µM was determined as 93.2 ± 4.7%.

Regarding `C=C(C)[C@@H]1CC[C@]2(C(=O)O)CC[C@]3(C)[C@H](CC[C@@H]4[C@@]5(C)CC[C@H](O)C(C)(C)[C@@H]5CC[C@]43C)[C@@H]12` [Betulinic acid, reference compound], the viability at 24 h, 50 µM in data set [1] came to 85.8 ± 7.4%. Besides, in data set [2], the IC50 is 11900 ± 1300 nM.

A word on the EC50: it is the concentration at which the effect is half-maximal. `CC(C)(Oc1ccc(C(=O)c2ccc(Cl)cc2)cc1)C(=O)O` [Fenofibric acid]: the IC50 in the data set with COX-2 (read-out: IC50, COX-2 inhibitory activity) is 48 nM. For the same compound, the concentration for a half-maximal effect (EC50) in the data set on PPAR-α was […]; in the data set on PPAR-γ, […]; in the data set on PPAR-δ, […].

As to `CC(C(=O)O)c1cccc(C(=O)c2ccccc2)c1` (stereo not shown) [Ketoprofen], the half-inhibitory concentration (IC50) in the data set with COX-1 was 2 nM; with COX-2 (read-out: IC50 for COX-2), 26 nM.
